Test results from PubChem BioAssay (NCI).
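Test compounds were applied to cells in 96-well plates for 48 hours at 5 doses. GI50 is the concentration that inhibits growth by half. TGI marks complete inhibition of growth.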

Assays:
Experiment in all cases: NCI tumour cell line growth inhibition, 48 h
786-0 renal = test system: 786-0 renal
A498 renal = test system: A498 renal
A549 NSCLC = test system: A549 NSCLC
ACHN renal = test system: ACHN renal
BT-549 breast = test system: BT-549 breast
CAKI-1 renal = test system: CAKI-1 renal
CCRF-CEM leukemia = test system: CCRF-CEM leukemia
COLO 205 colon = test system: COLO 205 colon
DU-145 prostate = test system: DU-145 prostate
EKVX NSCLC = test system: EKVX NSCLC
HCC-2998 colon = test system: HCC-2998 colon
HCT-116 colon = test system: HCT-116 colon
HCT-15 colon = test system: HCT-15 colon
HL-60(TB) leukemia = test system: HL-60(TB) leukemia
HOP-62 NSCLC = test system: HOP-62 NSCLC
HOP-92 NSCLC = test system: HOP-92 NSCLC
HS 578T breast = test system: HS 578T breast
HT29 colon = test system: HT29 colon
IGROV1 ovarian = test system: IGROV1 ovarian
K-562 leukemia = test system: K-562 leukemia
KM12 colon = test system: KM12 colon
LOX IMVI melanoma = test system: LOX IMVI melanoma
M14 melanoma = test system: M14 melanoma
MALME-3M melanoma = test system: MALME-3M melanoma
MCF7 breast = test system: MCF7 breast
MDA-MB-231 breast = test system: MDA-MB-231 breast
MDA-MB-435 = test system: MDA-MB-435
MDA-MB-468 breast = test system: MDA-MB-468 breast
MOLT-4 leukemia = test system: MOLT-4 leukemia
NCI-H226 lung = test system: NCI-H226 lung
NCI-H23 lung = test system: NCI-H23 lung
NCI-H460 lung = test system: NCI-H460 lung
NCI-H522 lung = test system: NCI-H522 lung
NCI/ADR-RES ovarian = test system: NCI/ADR-RES ovarian
OVCAR-3 ovarian = test system: OVCAR-3 ovarian
OVCAR-4 ovarian = test system: OVCAR-4 ovarian
OVCAR-5 ovarian = test system: OVCAR-5 ovarian
OVCAR-8 ovarian = test system: OVCAR-8 ovarian
PC-3 prostate = test system: PC-3 prostate
RPMI-8226 leukemia = test system: RPMI-8226 leukemia
RXF 393 renal = test system: RXF 393 renal
SF-268 CNS = test system: SF-268 CNS
SF-295 CNS = test system: SF-295 CNS
SF-539 CNS = test system: SF-539 CNS
SK-MEL-2 melanoma = test system: SK-MEL-2 melanoma
SK-MEL-28 melanoma = test system: SK-MEL-28 melanoma
SK-MEL-5 melanoma = test system: SK-MEL-5 melanoma
SK-OV-3 ovarian = test system: SK-OV-3 ovarian
SN12C renal = test system: SN12C renal
SNB-19 CNS = test system: SNB-19 CNS
SNB-75 CNS = test system: SNB-75 CNS
SR leukemia = test system: SR leukemia
SW-620 colon = test system: SW-620 colon
T-47D breast = test system: T-47D breast
TK-10 renal = test system: TK-10 renal
U251 CNS = test system: U251 CNS
UACC-257 melanoma = test system: UACC-257 melanoma
UACC-62 melanoma = test system: UACC-62 melanoma
UO-31 renal = test system: UO-31 renal

For `COc1ccc(CCC2c3c(cc4c(c3OC)OCO4)CCN2C)cc1` (stereo not drawn), the GI50 (786-0 renal) was 9.15 µM, the TGI (786-0 renal) was 24 µM and the GI50 (A498 renal) was 18 µM. It also gave a TGI (A498 renal) of 64.6 µM, a GI50 (A549 NSCLC) of 17 µM and a TGI (A549 NSCLC) greater than 100 µM. The GI50 (ACHN renal) was 8.95 µM, the TGI (ACHN renal) was 45 µM and the GI50 (BT-549 breast) was 7.68 µM. It also gave a TGI (BT-549 breast) of 20.1 µM, a GI50 (CAKI-1 renal) of 9.84 µM and a TGI (CAKI-1 renal) of 38.8 µM. It also gave a GI50 (CCRF-CEM leukemia) of 11.2 µM, a TGI (CCRF-CEM leukemia) of 46.7 µM and a GI50 (COLO 205 colon) of 5.99 µM. The TGI (COLO 205 colon) was 21 µM, the GI50 (DU-145 prostate) was 20.1 µM and the TGI (DU-145 prostate) was 86.2 µM. It also gave a GI50 (EKVX NSCLC) of 16.1 µM, a TGI (EKVX NSCLC) of 67.7 µM and a GI50 (HCC-2998 colon) of 10.7 µM. For the same compound, the TGI (HCC-2998 colon) was 25.7 µM, the GI50 (HCT-116 colon) was 3.35 µM and the TGI (HCT-116 colon) was 13.8 µM. It also gave a GI50 (HCT-15 colon) of 9.8 µM, a TGI (HCT-15 colon) of 34.8 µM and a GI50 (HL-60(TB) leukemia) of 3.01 µM. The TGI (HL-60(TB) leukemia) was 18 µM, the GI50 (HOP-62 NSCLC) was 7.41 µM and the TGI (HOP-62 NSCLC) was 46.3 µM. It also gave a GI50 (HOP-92 NSCLC) of 5.16 µM, a TGI (HOP-92 NSCLC) of 23.4 µM and a GI50 (HS 578T breast) of 10.4 µM. The TGI (HS 578T breast) was 41.8 µM, the GI50 (HT29 colon) was 3.63 µM and the TGI (HT29 colon) was 20.9 µM. For the same compound, the GI50 (IGROV1 ovarian) was 5.72 µM, the TGI (IGROV1 ovarian) was 22.1 µM and the GI50 (K-562 leukemia) was 3.94 µM. It also gave a TGI (K-562 leukemia) of 24.6 µM, a GI50 (KM12 colon) of 12.6 µM and a TGI (KM12 colon) of 33.2 µM. It also gave a GI50 (LOX IMVI melanoma) of 3.14 µM, a TGI (LOX IMVI melanoma) of 12.6 µM and a GI50 (M14 melanoma) of 7.17 µM. It also gave a TGI (M14 melanoma) of 23.2 µM, a GI50 (MALME-3M melanoma) of 14.2 µM and a TGI (MALME-3M melanoma) of 27.5 µM. The GI50 (MCF7 breast) was 10.4 µM, the TGI (MCF7 breast) was 24.3 µM and the GI50 (MDA-MB-231 breast) was 9.13 µM. The TGI (MDA-MB-231 breast) was 22.6 µM, the GI50 (MDA-MB-435) was 3.78 µM and the TGI (MDA-MB-435) was 17.1 µM. The GI50 (MDA-MB-468 breast) was 6.81 µM, the TGI (MDA-MB-468 breast) was 21.6 µM and the GI50 (MOLT-4 leukemia) was 6.39 µM. It also gave a TGI (MOLT-4 leukemia) of 32.8 µM, a GI50 (NCI-H226 lung) of 7.04 µM and a TGI (NCI-H226 lung) of 25.6 µM. For the same compound, the GI50 (NCI-H23 lung) was 6.56 µM, the TGI (NCI-H23 lung) was 31.7 µM and the GI50 (NCI-H460 lung) was 4.76 µM. For the same compound, the TGI (NCI-H460 lung) was 19.1 µM, the GI50 (NCI-H522 lung) was 12.1 µM and the TGI (NCI-H522 lung) was 27.1 µM. For the same compound, the GI50 (NCI/ADR-RES ovarian) was 9.23 µM, the TGI (NCI/ADR-RES ovarian) was 26.2 µM and the GI50 (OVCAR-3 ovarian) was 10.9 µM. It also gave a TGI (OVCAR-3 ovarian) of 29.3 µM, a GI50 (OVCAR-4 ovarian) of 17.2 µM and a TGI (OVCAR-4 ovarian) of 99.2 µM. The GI50 (OVCAR-5 ovarian) was 5.98 µM, the TGI (OVCAR-5 ovarian) was 28.8 µM and the GI50 (OVCAR-8 ovarian) was 13.1 µM. The TGI (OVCAR-8 ovarian) was 30.5 µM, the GI50 (PC-3 prostate) was 9.52 µM and the TGI (PC-3 prostate) was 35.1 µM. The GI50 (RPMI-8226 leukemia) was 4.05 µM, the TGI (RPMI-8226 leukemia) was 27.4 µM and the GI50 (RXF 393 renal) was 6.99 µM. It also gave a TGI (RXF 393 renal) of 30.6 µM, a GI50 (SF-268 CNS) of 14.3 µM and a TGI (SF-268 CNS) greater than 100 µM. It also gave a GI50 (SF-295 CNS) of 3.5 µM, a TGI (SF-295 CNS) of 17.2 µM and a GI50 (SF-539 CNS) of 4.91 µM. It also gave a TGI (SF-539 CNS) of 16.8 µM, a GI50 (SK-MEL-2 melanoma) of 14.6 µM and a TGI (SK-MEL-2 melanoma) of 36.7 µM. It also gave a GI50 (SK-MEL-28 melanoma) of 10.2 µM, a TGI (SK-MEL-28 melanoma) of 22.5 µM and a GI50 (SK-MEL-5 melanoma) of 10.4 µM. It also gave a TGI (SK-MEL-5 melanoma) of 22.2 µM, a GI50 (SK-OV-3 ovarian) of 17.3 µM and a TGI (SK-OV-3 ovarian) of 43.3 µM. For the same compound, the GI50 (SN12C renal) was 7.05 µM, the TGI (SN12C renal) was 37.4 µM and the GI50 (SNB-19 CNS) was 15 µM. It also gave a TGI (SNB-19 CNS) greater than 100 µM, a GI50 (SNB-75 CNS) of 13.5 µM and a TGI (SNB-75 CNS) of 70.5 µM. The GI50 (SR leukemia) was 3.94 µM, the TGI (SR leukemia) was 24 µM and the GI50 (SW-620 colon) was 3.93 µM. The TGI (SW-620 colon) was 16.8 µM, the GI50 (T-47D breast) was 6.92 µM and the TGI (T-47D breast) was 29.6 µM. The GI50 (TK-10 renal) was 10.6 µM, the TGI (TK-10 renal) was 31.8 µM and the GI50 (U251 CNS) was 13.6 µM. It also gave a TGI (U251 CNS) of 46.5 µM, a GI50 (UACC-257 melanoma) of 13.4 µM and a TGI (UACC-257 melanoma) of 28.2 µM. The GI50 (UACC-62 melanoma) was 10.6 µM, the TGI (UACC-62 melanoma) was 23.2 µM and the GI50 (UO-31 renal) was 8.73 µM. For the same compound, the TGI (UO-31 renal) was 54.1 µM.
